For 27 compounds, EC50 results are on record in US20160083357A1, “NOVEL TETRAZOLONE DERIVATIVES” (Hoffmann-La Roche Inc., priority 2013, published 2016).

Read-outs that look alike come from different tables or passages of the source. Bounds are passed on as bounds.

For assay [1], the target named is T1, human CB2 receptors (Homo sapiens, UniProt P34972).
T1 construct: expressed in transfected cells; host or cells: CHO cells
The assay can be described thus: cAMP assay, human CB2. In kind it is cell-based. The method, then:
(§1) CHO cells expressing human CB1 or CB2 receptors are seeded 17-24 hours prior to the experiment 50.000 cells per well in a black 96 well plate with flat clear bottom (Corning Costar #3904) in DMEM (Invitrogen No. 31331), lx HT supplement, with 10% fetal calf serum and incubated at 5% CO2 and 37° C. in a humidified incubator. The growth medium was exchanged with Krebs Ringer Bicarbonate buffer with 1 mM IBMX and incubated at 30° C. for 30 min. Compounds were added to a final assay volume of 100 μl and incubated for 30 min at 30° C. Using the cAMP-Nano-TRF detection kit the assay (Roche Diagnostics) was stopped by the addition of 50 μl lysis reagent (Tris, NaCl, 1.5% Triton X100, 2.5% NP40, 10% NaN3) and 50 μl detection solutions (20 μM mAb Alexa700-cAMP 1:1, and 48 μM Ruthenium-2-AHA-cAMP) and shaken for 2 h at room temperature. The time-resolved energy transfer is measured by a TRF reader (Evotec Technologies GmbH), equipped with a ND:YAG laser as excitation source. The plate is measured twice with the excitation at 355 nm and at the emission with a delay of 100 ns and a gate of 100 ns, total exposure time 10 s at 730 (bandwidth 30 nm) or 645 nm (bandwidth 75 nm), respectively. The FRET signal is calculated as follows: FRET=T730-Alexa730-P(T645-B645) with P=Ru730-B730/Ru645-B645, where T730 is the test well measured at 730 nM, T645 is the test well measured at 645 nm, B730 and B645 are the buffer controls at 730 nm and 645 nm, respectively. cAMP content is determined from the function of a standard curve spanning from 10 μM to 0.13 nM cAMP.
(§2) EC50 values were determined using Activity Base analysis (ID Business Solution, Limited). The EC50 values for a wide range of cannabinoid agonists generated from this assay were in agreement with the values published in the scientific literature.

The target of assay [2] is T2, human CB1 receptors (Homo sapiens, UniProt P21554).
T2 construct: expressed in transfected cells; host or cells: CHO cells
As to the kind of experiment: cAMP assay, human CB1. Type of assay: cell-based. The method, then:
as §1, §2
For orientation: Cyclic AMP is a second messenger, typically raised through Gs and lowered through Gi signalling.

Setting [3] is: functional cAMP assay, CHO cells expressing human CB2, read-out: Ec50: CB2 - hu cAMP.
Where [4] appears, read: functional cAMP assay, CHO cells expressing human CB1, read-out: Ec50: CB1 - hu cAMP.

T2 sequence (P21554 whole entry): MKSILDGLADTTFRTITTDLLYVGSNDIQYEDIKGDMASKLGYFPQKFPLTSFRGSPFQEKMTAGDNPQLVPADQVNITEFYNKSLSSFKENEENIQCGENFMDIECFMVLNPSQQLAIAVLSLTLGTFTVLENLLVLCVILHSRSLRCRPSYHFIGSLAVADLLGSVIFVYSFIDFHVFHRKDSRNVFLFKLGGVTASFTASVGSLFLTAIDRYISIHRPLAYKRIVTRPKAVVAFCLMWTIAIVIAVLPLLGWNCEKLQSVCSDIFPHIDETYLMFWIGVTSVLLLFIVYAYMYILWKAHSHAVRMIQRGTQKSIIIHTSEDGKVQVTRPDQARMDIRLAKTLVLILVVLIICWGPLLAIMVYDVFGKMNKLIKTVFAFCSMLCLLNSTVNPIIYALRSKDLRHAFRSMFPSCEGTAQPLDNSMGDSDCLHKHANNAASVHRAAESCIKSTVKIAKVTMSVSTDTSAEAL
T1 sequence (P34972 whole entry): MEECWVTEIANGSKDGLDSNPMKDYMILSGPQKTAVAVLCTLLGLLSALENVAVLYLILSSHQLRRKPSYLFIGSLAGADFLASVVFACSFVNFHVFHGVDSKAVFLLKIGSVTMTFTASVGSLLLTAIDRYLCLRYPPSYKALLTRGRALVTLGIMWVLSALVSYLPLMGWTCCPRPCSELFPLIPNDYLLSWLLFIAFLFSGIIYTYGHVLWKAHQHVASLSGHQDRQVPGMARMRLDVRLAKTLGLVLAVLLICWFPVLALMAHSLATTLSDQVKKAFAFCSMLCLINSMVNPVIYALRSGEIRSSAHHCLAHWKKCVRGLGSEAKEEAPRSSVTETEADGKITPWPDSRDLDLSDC

For the compound `CCN(Cc1ccccc1)C(=O)n1nnn(-c2ccc(Cl)nc2)c1=O` [Example 53, 4-(6-Chloro-pyridin-3-yl)-5-oxo-4,5-dihydro-tetrazole-1-carboxylic acid benzyl-ethyl-amide], the results for the 50% effective concentration (EC50) in assay [1] and in assay [2] were 1 nM and over 10000 nM, respectively.

In the case of `COCCN(C)C(=O)n1nnn(-c2cccc(F)c2)c1=O` [Example 54, 4-(3-Fluoro-phenyl)-5-oxo-4,5-dihydro-tetrazole-1-carboxylic acid (2-methoxy-ethyl)-methyl-amide], the EC50 was 1.3 nM in assay [1] (setting [3]) and over 10000 nM in assay [2] (setting [4]).

On to `COCCN(C(=O)n1nnn(-c2cccc(F)c2)c1=O)C(C)C` [Example 55, 4-(3-Fluoro-phenyl)-5-oxo-4,5-dihydro-tetrazole-1-carboxylic acid isopropyl-(2-methoxy-ethyl)-amide], for which the EC50 was 4.1 nM in assay [1] (setting [3]) and over 10000 nM in assay [2] (setting [4]).

Regarding `CCCN(CCOC)C(=O)n1nnn(-c2cccc(F)c2)c1=O` [Example 56, 4-(3-Fluoro-phenyl)-5-oxo-4,5-dihydro-tetrazole-1-carboxylic acid (2-methoxy-ethyl)-propyl-amide], the EC50 was 17 nM in assay [1] and over 10000 nM in assay [2].

Consider `COCCN(CCOC)C(=O)n1nnn(-c2cccc(F)c2)c1=O` [Example 57, 4-(3-Fluoro-phenyl)-5-oxo-4,5-dihydro-tetrazole-1-carboxylic acid bis-(2-methoxy-ethyl)-amide], for which the results for the EC50 in assay [1] (setting [3]) and in assay [2] (setting [4]) were 8.5 nM and over 10000 nM, respectively.

For `CC1CN(C(=O)n2nnn(-c3cccc(F)c3)c2=O)CC(C)O1` (stereo not drawn) [Example 58, 1-(2,6-Dimethyl-morpholine-4-carbonyl)-4-(3-fluoro-phenyl)-1,4-dihydro-tetrazol-5-one], the EC50 is 45.4 nM in assay [1] (setting [3]) and over 10000 nM in assay [2] (setting [4]).

Take `C[C@@H]1CN(C(=O)n2nnn(-c3cccc(F)c3)c2=O)C[C@H](C)O1` [Example 59, 1-((2S,6R)-2,6-Dimethyl-morpholine-4-carbonyl)-4-(3-fluoro-phenyl)-1,4-dihydro-tetrazol-5-one]: the concentration for a half-maximal effect (EC50) in assay [1] (setting [3]) is 988 nM; in assay [2] (setting [4]), over 10000 nM.

As for `COCC1CCN(C(=O)n2nnn(-c3cccc(F)c3)c2=O)CC1` [Example 60, 1-(3-Fluoro-phenyl)-4-(4-methoxymethyl-piperidine-1-carbonyl)-1,4-dihydro-tetrazol-5-one], the EC50 in assay [1] (setting [3]) is 1.3 nM; in assay [2] (setting [4]) it was over 10000 nM.

In the case of `N#CC1CCN(C(=O)n2nnn(-c3cccc(F)c3)c2=O)CC1` [Example 61, 1-[4-(3-Fluoro-phenyl)-5-oxo-4,5-dihydro-tetrazole-1-carbonyl]-piperidine-4-carbonitrile], the EC50 in assay [1] (setting [3]) was 6.8 nM; in assay [2] (setting [4]) it was over 10000 nM.

As to `COC(=O)C1(NC(=O)OC(C)(C)C)CCN(C(=O)n2nnn(-c3cccc(F)c3)c2=O)CC1` [Example 62, 4-tert-Butoxycarbonylamino-1-[4-(3-fluoro-phenyl)-5-oxo-4,5-dihydro-tetrazole-1-carbonyl]-piperidine-4-carboxylic acid methyl ester], the EC50 was 61.4 nM in assay [1] (setting [3]) and over 10000 nM in assay [2] (setting [4]).

For the compound `CC1(C)CCCN(C(=O)n2nnn(-c3cccc(F)c3)c2=O)C1` [Example 63, 1-(3,3-Dimethyl-piperidine-1-carbonyl)-4-(3-fluoro-phenyl)-1,4-dihydro-tetrazol-5-one], the concentration giving a half-maximal response (EC50) in assay [1] (setting [3]) was 1.8 nM; in assay [2] (setting [4]) it was over 10000 nM.

Regarding `O=C(N1CCC2(CCOC2)CC1)n1nnn(-c2cccc(F)c2)c1=O` [Example 64, 1-(3-Fluoro-phenyl)-4-(2-oxa-8-aza-spiro[4.5]decane-8-carbonyl)-1,4-dihydro-tetrazol-5-one], the values for the EC50 in assay [1] (setting [3]) and in assay [2] (setting [4]) were 2.5 nM and over 10000 nM, respectively.

As to `CC(=O)N[C@@H]1CCN(C(=O)n2nnn(-c3cccc(Cl)c3)c2=O)C1` [Example 65, N—{(R)-1-[4-(3-Chloro-phenyl)-5-oxo-4,5-dihydro-tetrazole-1-carbonyl]-pyrrolidin-3-yl}-acetamide], the EC50 in assay [1] (setting [3]) was 15 nM; in assay [2] (setting [4]), over 10000 nM.

On to `CC(=O)N[C@@H]1CCN(C(=O)n2nnn(-c3cccc(OC(F)(F)F)c3)c2=O)C1` [Example 66, N—{(R)-1-[5-Oxo-4-(3-trifluoromethoxy-phenyl)-4,5-dihydro-tetrazole-1-carbonyl]-pyrrolidin-3-yl}-acetamide], for which the EC50 was 20.4 nM in assay [1] (setting [3]) and over 10000 nM in assay [2] (setting [4]).

As to `CC(=O)N[C@@H]1CCN(C(=O)n2nnn(-c3ccc(Cl)cc3)c2=O)C1` [Example 67, N—{(R)-1-[4-(4-Chloro-phenyl)-5-oxo-4,5-dihydro-tetrazole-1-carbonyl]-pyrrolidin-3-yl}-acetamide], the EC50 is 14.6 nM in assay [1] (setting [3]) and over 10000 nM in assay [2] (setting [4]).

Consider `CC(=O)N[C@H]1CCN(C(=O)n2nnn(-c3cccc(Cl)c3)c2=O)C1` [Example 68, N—{(S)-1-[4-(3-Chloro-phenyl)-5-oxo-4,5-dihydro-tetrazole-1-carbonyl]-pyrrolidin-3-yl}-acetamide], for which the figures for the EC50 in assay [1] (setting [3]) and in assay [2] (setting [4]) were 39.5 nM and over 10000 nM, respectively.

For the compound `CC(=O)N[C@H]1CCN(C(=O)n2nnn(-c3cccc(OC(F)(F)F)c3)c2=O)C1` [Example 69, N—{(S)-1-[5-Oxo-4-(3-trifluoromethoxy-phenyl)-4,5-dihydro-tetrazole-1-carbonyl]-pyrrolidin-3-yl}-acetamide], the EC50 is 18.2 nM in assay [1] (setting [3]) and over 10000 nM in assay [2] (setting [4]).

For the compound `CC(=O)N[C@H]1CCN(C(=O)n2nnn(-c3ccc(Cl)cc3)c2=O)C1` [Example 70, N—{(S)-1-[4-(4-Chloro-phenyl)-5-oxo-4,5-dihydro-tetrazole-1-carbonyl]-pyrrolidin-3-yl}-acetamide], the values for the EC50 in assay [1] (setting [3]) and in assay [2] (setting [4]) were 32.1 nM and over 10000 nM, respectively.

As for `CCN(C(C)=O)C1CCN(C(=O)n2nnn(-c3cccc(Cl)c3)c2=O)C1` (stereo not drawn) [Example 71, N-{1-[4-(3-Chloro-phenyl)-5-oxo-4,5-dihydro-tetrazole-1-carbonyl]-pyrrolidin-3-yl}-N-ethyl-acetamide], the results for the EC50 in assay [1] (setting [3]) and in assay [2] (setting [4]) were 16.7 nM and over 10000 nM, respectively.

For `CCN(C(C)=O)C1CCN(C(=O)n2nnn(-c3cccc(OC(F)(F)F)c3)c2=O)C1` (stereo not drawn) [Example 72, N-Ethyl-N-{1-[5-oxo-4-(3-trifluoromethoxy-phenyl)-4,5-dihydro-tetrazole-1-carbonyl]-pyrrolidin-3-yl}-acetamide], the results for the 50% effective concentration (EC50) in assay [1] (setting [3]) and in assay [2] (setting [4]) were 27 nM and over 10000 nM, respectively.

For `CCN(C(C)=O)C1CCN(C(=O)n2nnn(-c3ccc(Cl)cc3)c2=O)C1` (stereo not drawn) [Example 73, N-{1-[4-(4-Chloro-phenyl)-5-oxo-4,5-dihydro-tetrazole-1-carbonyl]-pyrrolidin-3-yl}-N-ethyl-acetamide], the EC50 is 10.8 nM in assay [1] (setting [3]) and over 10000 nM in assay [2] (setting [4]).

As for `Cc1cc(C2CCCN2C(=O)n2nnn(-c3cccc(Cl)c3)c2=O)on1` (stereo not drawn) [Example 74, 1-(3-Chloro-phenyl)-4-[2-(3-methyl-isoxazol-5-yl)-pyrrolidine-1-carbonyl]-1,4-dihydro-tetrazol-5-one], the EC50 is 9.7 nM in assay [1] (setting [3]) and over 10000 nM in assay [2] (setting [4]).

Consider `Cc1cc(C2CCCN2C(=O)n2nnn(-c3cccc(OC(F)(F)F)c3)c2=O)on1` (stereo not drawn) [Example 75, 1-[2-(3-Methyl-isoxazol-5-yl)-pyrrolidine-1-carbonyl]-4-(3-trifluoromethoxy-phenyl)-1,4-dihydro-tetrazol-5-one], for which the figures for the EC50 in assay [1] (setting [3]) and in assay [2] (setting [4]) were 28.5 nM and over 10000 nM, respectively.

For `Cc1cc(C2CCCN2C(=O)n2nnn(-c3ccc(Cl)cc3)c2=O)on1` (stereo not drawn) [Example 76, 1-(4-Chloro-phenyl)-4-[2-(3-methyl-isoxazol-5-yl)-pyrrolidine-1-carbonyl]-1,4-dihydro-tetrazol-5-one], the half-maximal effective concentration (EC50) in assay [1] (setting [3]) is 7.4 nM; in assay [2] (setting [4]), over 10000 nM.

For the compound `CC1(C)CCN(C(=O)n2nnn(-c3cccc(Cl)c3)c2=O)CC1` [Example 77, 1-(3-Chloro-phenyl)-4-(4,4-dimethyl-piperidine-1-carbonyl)-1,4-dihydro-tetrazol-5-one], the EC50 in assay [1] (setting [3]) was 0.6 nM; in assay [2] (setting [4]), over 10000 nM.

For the compound `CC1(C)CCN(C(=O)n2nnn(-c3cccc(OC(F)(F)F)c3)c2=O)CC1` [Example 78, 1-(4,4-Dimethyl-piperidine-1-carbonyl)-4-(3-trifluoromethoxy-phenyl)-1,4-dihydro-tetrazol-5-one], the 50% effective concentration (EC50) in assay [1] (setting [3]) was 1.5 nM; in assay [2] (setting [4]) it was over 10000 nM.

With `CC1(C)CCN(C(=O)n2nnn(-c3ccc(Cl)cc3)c2=O)CC1` [Example 79, 1-(4-Chloro-phenyl)-4-(4,4-dimethyl-piperidine-1-carbonyl)-1,4-dihydro-tetrazol-5-one], the EC50 in assay [1] (setting [3]) is 0.9 nM; in assay [2] (setting [4]) it was over 10000 nM.

By EC50 is commonly meant the midpoint of the concentration-response curve.
